Data taken from US20180360790A1, “NUTRITIONAL COMPOSITIONS AND INFANT FORMULAS TO PROMOTE MYELINATION IN THE BRAIN” (NESTEC S.A., priority 2015, published 2018).

Tested on: brain myelination (myelin water fraction)
Experiment: Cross-sectional correlation of infant formula nutrient composition with brain myelination (mcDESPOT MRI, general linear model)
Type: in vivo, infants and young children
Conditions: single GLM of quantified formula nutrients and child age vs myelin water fraction; children up to 5 years; 5 most frequently used formulas
Procedure: This technique provides a quantitative measure, the Myelin Water Fraction (MWF), which is a surrogate marker of myelin content. When mapped as a function of time across early childhood, myelination trajectories can be generated. Infant formula composition: six infant formulas fed to infants participating in study were analyzed for their composition/level of myelin-relevant nutrients. […] Infants included in this study were drawn from a larger longitudinal study of normal brain and behavioral development: the Brown university Assessment of Myelination and Behavior Across Maturation (BAMBAM). To focus on neurotypical development, children with known potential risk factors for learning, neurologic, or psychiatric disorders were specifically excluded during recruitment and enrollment. […] Each infant was scanned using the mcDESPOT (multicomponent Driven Equilibrium Single Pulse Observation of T1 and T2) white matter imaging technique Deoni et al. (Magn. Reson. Med. 2008, 60:1372-1387), which provides a quantitative measure of the myelin water fraction (MWF) at each imaging point throughout the brain. […] Mean values for each region were then determined for each child and used for subsequent developmental analysis and trajectory modeling.

| Substance | nutritional drivers for myelination indicated by the final model |
| --- | --- |
| Iron | identified drivers |
| sphingomyelin | identified drivers |
